Converted amounts (≈) assume the structure as drawn.
Legend:
Experiment in all cases: ≥ marks a high value that may be exact or a test limit, other limits are often not marked, values filed in µg/mL are converted to µM
[1] = system: Pseudomonas aeruginosa Q14-0890
[2] = system: Pseudomonas aeruginosa Q12-0535
[3] = system: Campylobacter jejuni NCTC 11351
[4] = system: Pseudomonas aeruginosa PAO1
[5] = system: Staphylococcus aureus Q14-0320
[6] = system: Klebsiella pneumoniae NCTC 13442
[7] = system: Acinetobacter baumannii Q12-0809
[8] = system: Staphylococcus aureus RN4220
[9] = system: Pseudomonas aeruginosa Q14-0208
[10] = system: Salmonella typhimurium SL1344
[11] = system: Escherichia coli
[12] = system: Staphylococcus aureus MRSA-15
[13] = system: Klebsiella pneumoniae ATCC 700603
[14] = system: Staphylococcus aureus NCTC 12493
[15] = system: Acinetobacter baumannii Q13-0717
[16] = system: Listeria monocytogenes NCTC 11994
[17] = system: Klebsiella pneumoniae Q14-0095
[18] = system: Klebsiella pneumoniae Q14-0285
[19] = system: Pseudomonas aeruginosa ATCC 27853
[20] = system: Enterococcus faecalis JH-2-2
[21] = system: Campylobacter jejuni
[22] = system: Escherichia coli K-12
[23] = system: Staphylococcus aureus ATCC 29213
[24] = system: Staphylococcus aureus Q14-0325
[25] = system: Salmonella typhimurium KCTC 1926
[26] = system: Escherichia coli ATCC 25922
[27] = system: Staphylococcus aureus CCARM 3709
[28] = system: Staphylococcus aureus CCARM 3114
[29] = system: Listeria monocytogenes KCTC 3710
[30] = system: Escherichia coli CCARM 1238
[31] = system: Salmonella typhimurium CCARM 8009
[32] = system: Salmonella typhimurium CCARM 8013
[33] = system: Escherichia coli CCARM 1229
[34] = system: Pseudomonas aeruginosa 5018
[35] = system: Pseudomonas aeruginosa 3592
[36] = system: Staphylococcus aureus ATCC 25923
[37] = system: Salmonella enterica subsp. enterica serovar Enteritidis ATCC 13076
[38] = system: Streptococcus pyogenes ATCC 19615
[39] = system: Serratia marcescens ATCC 21202
[40] = system: Bacillus cereus ATCC 11778
[41] = system: Listeria monocytogenes ATCC 19112
[42] = system: Pseudomonas aeruginosa ATCC 15442
[43] = system: Listeria monocytogenes ATCC 19115
[44] = system: Salmonella enterica subsp. enterica serovar Enteritidis CVCC 3377
[45] = system: Bacillus subtilis ATCC 6633
[46] = system: Klebsiella pneumoniae H507
[47] = system: Streptococcus suis CVCC 606

CC(C)C[C@H](NC(=O)[C@H](CO)NC(=O)[C@H](CO)NC(=O)[C@H](CO)NC(=O)[C@H](CCCN=C(N)N)NC(=O)[C@@H](NC(=O)[C@H](CCCN=C(N)N)NC(=O)[C@H](Cc1c[nH]c2ccccc12)NC(=O)[C@H](CS)NC(=O)[C@H](CC(N)=O)NC(=O)[C@H](CCCN=C(N)N)NC(=O)[C@H](Cc1ccccc1)NC(=O)[C@H](C)NC(=O)[C@H](CCCCN)NC(=O)[C@H](Cc1c[nH]c2ccccc12)NC(=O)[C@H](CCCN=C(N)N)NC(=O)[C@H](Cc1c[nH]c2ccccc12)NC(=O)[C@H](C)N)C(C)C)C(=O)O [AWRWKAFRNCWRVRSSSL]
MIC [1]: 13.9 µM (≈ 32 µg/mL) | MIC [2]: ≥ 55.4 µM | MIC [3]: ≥ 55.4 µM | MIC [4]: 13.9 µM (≈ 32 µg/mL) | MIC [5]: ≥ 55.4 µM | MIC [6]: ≥ 55.4 µM | MIC [7]: 13.9 µM (≈ 32 µg/mL) | MIC [8]: 27.7 µM (≈ 64 µg/mL) | MIC [9]: 27.7 µM (≈ 64 µg/mL) | MIC [10]: 13.9 µM (≈ 32 µg/mL) | MIC [11]: > 55.4 µM | MIC [12]: 27.7 µM (≈ 64 µg/mL) | MIC [13]: 55.4 µM (≈ 128 µg/mL) | MIC [14]: 13.9 µM (≈ 32 µg/mL) | MIC [15]: 27.7 µM (≈ 64 µg/mL) | MIC [16]: 27.7 µM (≈ 64 µg/mL) | MIC [17]: ≥ 55.4 µM | MIC [18]: ≥ 55.4 µM | MIC [19]: > 55.4 µM | MIC [20]: 27.7 µM (≈ 64 µg/mL) | MIC [21]: ≥ 55.4 µM | MIC [22]: 27.7 µM (≈ 64 µg/mL) | MIC [23]: 55.4 µM (≈ 128 µg/mL) | MIC [24]: ≥ 55.4 µM

CC[C@H](C)[C@H](NC(=O)CN)C(=O)N[C@@H](Cc1cnc[nH]1)C(=O)N[C@@H](Cc1cnc[nH]1)C(=O)N[C@H](C(=O)N[C@@H](CC(C)C)C(=O)N[C@@H](CCCCN)C(=O)N[C@@H](Cc1ccc(O)cc1)C(=O)NCC(=O)N[C@@H](CCCCN)C(=O)N1CCC[C@H]1C(=O)N[C@@H](CO)C(=O)O)[C@@H](C)CC [GIHHILKYGKPS]
MIC [25]: ≥ 32 µM | MIC [26]: > 32 µM | MIC [27]: ≥ 32 µM | MIC [28]: ≥ 32 µM | MIC [29]: ≥ 32 µM | MIC [30]: ≥ 32 µM | MIC [31]: ≥ 32 µM | MIC [32]: ≥ 32 µM | MIC [33]: ≥ 32 µM | MIC [34]: ≥ 32 µM | MIC [19]: > 32 µM | MIC [35]: ≥ 32 µM | MIC [36]: > 32 µM

CC[C@H](C)[C@H](N)C(=O)N[C@H](C(=O)N1CCC[C@H]1C(=O)N[C@@H](CC(C)C)C(=O)N1CCC[C@H]1C(=O)N[C@@H](CC(C)C)C(=O)NCC(=O)N[C@@H](Cc1ccc(O)cc1)C(=O)N[C@@H](Cc1ccccc1)C(=O)N[C@@H](C)C(=O)N[C@@H](CCCCN)C(=O)N[C@@H](CCCCN)C(=O)N[C@@H](CCCCN)C(=O)N[C@@H](CCCCN)C(=O)N[C@@H](CCCCN)C(=O)N[C@@H](CCCCN)C(=O)N[C@@H](CC(=O)O)C(=O)N1CCC[C@H]1C(=O)N[C@H](C(=O)N1CCC[C@H]1C(=O)N[C@@H](CC(C)C)C(=O)N[C@@H](CC(=O)O)C(=O)N[C@@H](CCC(N)=O)C(=O)O)C(C)C)[C@@H](C)CC [IIPLPLGYFAKKKKKKDPVPLDQ]
MIC [37]: ≥ 37.9 µM | MIC [13]: > 37.9 µM | MIC [26]: > 37.9 µM | MIC [38]: ≥ 37.9 µM | MIC [19]: > 37.9 µM | MIC [39]: ≥ 37.9 µM | MIC [23]: > 37.9 µM | MIC [40]: ≥ 37.9 µM

CC[C@H](C)[C@H](NC(=O)[C@H](CO)NC(=O)[C@@H](N)CC(C)C)C(=O)N[C@@H](CCCN=C(N)N)C(=O)N[C@@H](CCCN=C(N)N)C(=O)N[C@@H](CC(C)C)C(=O)N[C@@H](CC(C)C)C(=O)N[C@@H](C)C(=O)N[C@@H](C)C(=O)NCC(=O)N[C@H](C(=O)N[C@@H](CC(C)C)C(=O)N[C@@H](CCCCN)C(=O)N[C@@H](CCC(N)=O)C(=O)N[C@H](C(=O)N[C@@H](CCCCN)C(=O)NCC(=O)N[C@H](C(=O)NCC(=O)N[C@@H](C)C(=O)O)C(C)C)[C@@H](C)O)C(C)C [LSIRRLLAAGVLKQTKGVGA]
MIC [41]: 31.2 µM (≈ 64 µg/mL) | MIC [42]: 13 µM (≈ 26.7 µg/mL)

CC[C@H](C)[C@H](NC(=O)[C@H](Cc1ccccc1)NC(=O)[C@H](CC(=O)O)NC(=O)[C@H](CCCCN)NC(=O)[C@H](CCCCN)NC(=O)[C@H](CCC(=O)O)NC(=O)[C@H](Cc1c[nH]c2ccccc12)NC(=O)[C@@H](NC(=O)[C@@H](NC(=O)[C@H](CCCCN)NC(=O)[C@@H](NC(=O)[C@H](CCCCN)NC(=O)[C@H](CCCN=C(N)N)NC(=O)[C@H](CCCN=C(N)N)NC(=O)[C@H](CCSC)NC(=O)[C@@H](NC(=O)[C@H](CCCN=C(N)N)NC(=O)[C@H](CCSC)NC(=O)[C@@H](N)CCSC)C(C)C)[C@@H](C)O)C(C)C)[C@@H](C)CC)C(=O)NCC(=O)N[C@@H](CC(C)C)C(=O)N[C@@H](Cc1ccc(O)cc1)C(=O)N[C@@H](CO)C(=O)N[C@H](C(=O)N[C@@H](CC(=O)O)C(=O)O)[C@@H](C)CC [MMRVMRRKTKVIWEKKDFIGLYSID]
MIC [43]: 3.97 µM (≈ 12.5 µg/mL) | MIC [44]: 2 µM (≈ 6.3 µg/mL) | MIC [45]: 7.95 µM (≈ 25 µg/mL) | MIC [26]: 0.986 µM (≈ 3.1 µg/mL) | MIC [46]: 7.95 µM (≈ 25 µg/mL) | MIC [47]: 0.986 µM (≈ 3.1 µg/mL) | MIC [19]: 3.97 µM (≈ 12.5 µg/mL) | MIC [36]: 0.986 µM (≈ 3.1 µg/mL)
